Several values for one entry are separate records, joined by “and”; a condition that tells them apart may be missing. Equal values may be shown once.
Experiment: xn = mol fraction of the nth substance listed
Conditions: for surface tension liquid-gas: Ring tensiometer; for mass density: 101.3 kPa, Liquid

COCCOCCOCCOC [2,5,8,11-tetraoxadodecane] + O
Conditions	mass density [kg/m3]	surface tension liquid-gas
298.15 K, x1 = 0.0012	–	53.35 mN/m
298.15 K, x1 = 0.0024	–	51.27 mN/m
298.15 K, x1 = 0.0029	–	49.07 mN/m
298.15 K, x1 = 0.0036	–	48.59 mN/m
298.15 K, x1 = 0.0043	–	47.6 mN/m
298.15 K, x1 = 0.0173	1006.22	–
298.15 K, x1 = 0.0206	–	40.6 mN/m
298.15 K, x1 = 0.0375	–	38.88 mN/m
298.15 K, x1 = 0.0695	–	36.2 mN/m
298.15 K, x1 = 0.0905	–	33.99 mN/m
298.15 K, x1 = 0.0914	1019.65	–
298.15 K, x1 = 0.1223	–	33.06 mN/m
298.15 K, x1 = 0.163	–	32.87 mN/m
298.15 K, x1 = 0.1739	1017.24	–
298.15 K, x1 = 0.2731	1009.97	–
298.15 K, x1 = 0.2911	–	32.23 mN/m
298.15 K, x1 = 0.3468	1004.7	–
298.15 K, x1 = 0.3517	–	31.66 mN/m
298.15 K, x1 = 0.4515	998.25	–
298.15 K, x1 = 0.4658	–	31.16 mN/m
298.15 K, x1 = 0.5727	992.4	–
298.15 K, x1 = 0.583	–	30.5 mN/m
298.15 K, x1 = 0.6451	989.7	–
298.15 K, x1 = 0.659	–	30.09 mN/m
298.15 K, x1 = 0.7279	–	29.54 mN/m
298.15 K, x1 = 0.7766	985.98	–
298.15 K, x1 = 0.821	–	29.05 mN/m
298.15 K, x1 = 0.8679	984.02	–
298.15 K, x1 = 0.8823	–	28.52 mN/m
298.15 K, x1 = 0.8977	983.45	–
298.15 K, x1 = 0.9461	–	28.04 mN/m
298.15 K, x1 = 0.9699	981.95	–
298.15 K, x1 = 1	981.23	27.56 mN/m
308.15 K, x1 = 0.0009	–	53.01 mN/m
308.15 K, x1 = 0.0017	–	50.04 mN/m
308.15 K, x1 = 0.0026	–	47.96 mN/m
308.15 K, x1 = 0.0039	–	45.41 mN/m
308.15 K, x1 = 0.0109	–	41.72 mN/m
308.15 K, x1 = 0.0173	1004.32	–
308.15 K, x1 = 0.0218	–	40.14 mN/m
308.15 K, x1 = 0.0353	–	38.28 mN/m
308.15 K, x1 = 0.0882	–	36.04 mN/m
308.15 K, x1 = 0.0914	1016.26	–
308.15 K, x1 = 0.1214	–	34.06 mN/m
308.15 K, x1 = 0.1739	1010.56	–
308.15 K, x1 = 0.1767	–	33.08 mN/m
308.15 K, x1 = 0.2497	–	32.48 mN/m and 31.82 mN/m
308.15 K, x1 = 0.2731	1001.13	–
308.15 K, x1 = 0.34	–	31.44 mN/m
308.15 K, x1 = 0.3468	995.27	–
308.15 K, x1 = 0.4141	–	30.89 mN/m
308.15 K, x1 = 0.4515	988.66	–
308.15 K, x1 = 0.5272	–	30.74 mN/m
308.15 K, x1 = 0.5727	982.92	–
308.15 K, x1 = 0.5837	–	30.15 mN/m
308.15 K, x1 = 0.6451	980.17	–
308.15 K, x1 = 0.7176	–	29.76 mN/m
308.15 K, x1 = 0.7766	976.39	–
308.15 K, x1 = 0.8234	–	29.38 mN/m
308.15 K, x1 = 0.8679	974.51	–
308.15 K, x1 = 0.8977	973.95	–
308.15 K, x1 = 0.9458	–	28.74 mN/m
308.15 K, x1 = 0.9699	972.46	–
308.15 K, x1 = 1	971.71	28.48 mN/m
318.15 K, x1 = 0.0014	–	51.81 mN/m
318.15 K, x1 = 0.0021	–	47.47 mN/m
318.15 K, x1 = 0.0028	–	46.1 mN/m
318.15 K, x1 = 0.0039	–	44.63 mN/m
318.15 K, x1 = 0.01	–	41.37 mN/m
318.15 K, x1 = 0.0173	998.53	–
318.15 K, x1 = 0.0212	–	39.06 mN/m
318.15 K, x1 = 0.034	–	37.85 mN/m
318.15 K, x1 = 0.0543	–	35.26 mN/m
318.15 K, x1 = 0.0791	–	32.67 mN/m
318.15 K, x1 = 0.0849	–	32.5 mN/m
318.15 K, x1 = 0.0914	1007.41	–
318.15 K, x1 = 0.0917	–	32.42 mN/m
318.15 K, x1 = 0.122	–	32.27 mN/m
318.15 K, x1 = 0.1739	1001.45	–
318.15 K, x1 = 0.1848	–	32.14 mN/m
318.15 K, x1 = 0.2728	–	31.26 mN/m
318.15 K, x1 = 0.2731	992.1	–
318.15 K, x1 = 0.3289	–	31.05 mN/m
318.15 K, x1 = 0.3468	986.06	–
318.15 K, x1 = 0.3776	–	30.83 mN/m
318.15 K, x1 = 0.4515	979.25	–
318.15 K, x1 = 0.4688	–	30.3 mN/m
318.15 K, x1 = 0.5727	973.34	–
318.15 K, x1 = 0.6451	970.59	–
318.15 K, x1 = 0.6611	–	29.59 mN/m
318.15 K, x1 = 0.7234	–	29.4 mN/m
318.15 K, x1 = 0.7766	966.82	–
318.15 K, x1 = 0.8102	–	28.99 mN/m
318.15 K, x1 = 0.8562	–	28.68 mN/m
318.15 K, x1 = 0.8679	964.92	–
318.15 K, x1 = 0.8915	–	28.3 mN/m
318.15 K, x1 = 0.8977	964.34	–
318.15 K, x1 = 0.9699	962.91	–
318.15 K, x1 = 1	962.19	27.83 mN/m

COCCOCCOC [2,5,8-trioxanonane] + O
Conditions	mass density [kg/m3]	surface tension liquid-gas [mN/m]
298.15 K, x1 = 0.0047	–	49.27
298.15 K, x1 = 0.0141	–	44.11
298.15 K, x1 = 0.0188	1002.55	–
298.15 K, x1 = 0.0279	–	42.26
298.15 K, x1 = 0.0456	–	39.85
298.15 K, x1 = 0.0543	1006.8	–
298.15 K, x1 = 0.0874	–	35.99
298.15 K, x1 = 0.1184	–	31.62
298.15 K, x1 = 0.1289	1002.43	–
298.15 K, x1 = 0.1582	–	30.69
298.15 K, x1 = 0.1903	994.76	–
298.15 K, x1 = 0.2241	–	30.45
298.15 K, x1 = 0.3191	–	29.9
298.15 K, x1 = 0.3195	978.75	–
298.15 K, x1 = 0.4068	970.55	–
298.15 K, x1 = 0.4283	–	28.69
298.15 K, x1 = 0.4993	963.15	–
298.15 K, x1 = 0.5164	–	28.08
298.15 K, x1 = 0.621	955.66	–
298.15 K, x1 = 0.6493	–	27.9
298.15 K, x1 = 0.7181	950.74	–
298.15 K, x1 = 0.7841	–	26.77
298.15 K, x1 = 0.8097	946.27	–
298.15 K, x1 = 0.8737	–	26.29
298.15 K, x1 = 0.9099	942.33	–
298.15 K, x1 = 0.9228	–	25.69
298.15 K, x1 = 0.9551	940.97	–
298.15 K, x1 = 0.9704	–	25.19
298.15 K, x1 = 1	940.01	24.56
308.15 K, x1 = 0.0014	–	53.47
308.15 K, x1 = 0.0038	–	50.51
308.15 K, x1 = 0.0085	–	47.12
308.15 K, x1 = 0.0142	–	44.72
308.15 K, x1 = 0.0188	998.41	–
308.15 K, x1 = 0.0279	–	41.3
308.15 K, x1 = 0.0457	–	38.99
308.15 K, x1 = 0.0543	1001.43	–
308.15 K, x1 = 0.0875	–	33.65
308.15 K, x1 = 0.12	–	32.57
308.15 K, x1 = 0.1289	996.23	–
308.15 K, x1 = 0.1602	–	31.09
308.15 K, x1 = 0.1903	987.3	–
308.15 K, x1 = 0.2265	–	29.75
308.15 K, x1 = 0.3195	970.44	–
308.15 K, x1 = 0.3217	–	29.19
308.15 K, x1 = 0.4068	961.72	–
308.15 K, x1 = 0.4305	–	28.79
308.15 K, x1 = 0.4993	954.06	–
308.15 K, x1 = 0.5179	–	28.41
308.15 K, x1 = 0.621	945.87	–
308.15 K, x1 = 0.6498	–	28.3
308.15 K, x1 = 0.7181	940.7	–
308.15 K, x1 = 0.7831	–	27.7
308.15 K, x1 = 0.8097	936.34	–
308.15 K, x1 = 0.8744	–	27.58
308.15 K, x1 = 0.9099	932.39	–
308.15 K, x1 = 0.9165	–	27.54
308.15 K, x1 = 0.9551	931.05	–
308.15 K, x1 = 0.9645	–	27.43
308.15 K, x1 = 1	930.03	27.65
318.15 K, x1 = 0.0015	–	55.76
318.15 K, x1 = 0.0038	–	51.77
318.15 K, x1 = 0.0081	–	48.33
318.15 K, x1 = 0.0135	–	45.61
318.15 K, x1 = 0.0188	994.3	–
318.15 K, x1 = 0.0269	–	41.95
318.15 K, x1 = 0.0444	–	39.33
318.15 K, x1 = 0.0543	996.25	–
318.15 K, x1 = 0.0857	–	34.62
318.15 K, x1 = 0.1091	–	28.86
318.15 K, x1 = 0.1289	989.1	–
318.15 K, x1 = 0.156	–	26.65
318.15 K, x1 = 0.1903	979.79	–
318.15 K, x1 = 0.2194	–	25.34
318.15 K, x1 = 0.3174	–	24.45
318.15 K, x1 = 0.3195	961.72	–
318.15 K, x1 = 0.4068	952.75	–
318.15 K, x1 = 0.4248	–	24.26
318.15 K, x1 = 0.4993	944.64	–
318.15 K, x1 = 0.511	–	24.18
318.15 K, x1 = 0.621	936.5	–
318.15 K, x1 = 0.6513	–	23.87
318.15 K, x1 = 0.7181	931.28	–
318.15 K, x1 = 0.7915	–	23.64
318.15 K, x1 = 0.8097	926.76	–
318.15 K, x1 = 0.8844	–	23.5
318.15 K, x1 = 0.9099	922.58	–
318.15 K, x1 = 0.9137	–	23.48
318.15 K, x1 = 0.9547	–	23.46
318.15 K, x1 = 0.9551	921.12	–
318.15 K, x1 = 1	919.99	23.44
